Assay results as given in patent US8853424B2 (Japan Science and Technology Agency, priority 2008, dated 2014).

What was measured:
transglutaminase (TGase) = experiment: Measurement of TG (TGase inhibitory activity, monodansyl cadaverine / N,N-dimethylcasein fluorescence, FDSS 3000); type: biochemical
How it was run: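 Compound (1 μL of 10 mM stock) added to 0.1 mL reaction: 100 mM HEPES-NaOH pH 7.5, 1 mM CaCl2, 20 μM monodansyl cadaverine, 0.05 mg/mL N,N-dimethylcasein, 5 μg/mL TGase. Rate of fluorescence change at 340 nm measured; DMSO control set to 100; TG50 is the concentration halving activity.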

[1] = test system: Truncated N-terminal huntington 150 Q-EGFP-Neuron 2a cells; experiment: Measurement of x-Fold (polyglutamine aggregation inhibitory activity); type: cell-based
Method: In the present invention, the polyglutamine aggregation inhibitory activity (x-Fold) can be measured, for example, by the method described in the Example.
The number of the aggregated cells, and the total number of cells were counted by Array Scan V T1 (manufactured by Cellomics, Pittuburg, USA), and the ratio of the aggregated cells to the total number of cells was determined (x-Fold). […]

[2] = TGase activity with compound (10 mM, 1 μL in 0.1 ml enzyme reaction solution), DMSO control taken as 100
[3] = TGase inhibitory activity value, Table 1
[4] = polyglutamine aggregation inhibitory activity, Table 1
[5] = ratio of aggregated cells to total number of cells, compound 20 μM, 20 hr, almost 1 without compound, smaller = stronger inhibition

TGase activity remaining (% of DMSO control = 100) (transglutaminase (TGase); [2]) | TGase activity remaining (% of DMSO control = 100) (transglutaminase (TGase); [3]) | Compound | x-Fold [1, 4] | x-Fold [1, 5] | other results
146 | 146 | Cc1ccc(B(OC(=O)C(N)CCCNC(N)=O)c2ccc(C)c(Cl)c2)cc1Cl (centres unmarked) [Example 287, di(3-chloro-4-methylphenyl)(citrullinate-O,N)borane] | 1.00 | 1.00 | 
116 | 116 | Cc1ccc(B(OC(=O)C(N)CCN)c2ccc(C)c(Cl)c2)cc1Cl (centres unmarked) [Example 293, di(3-chloro-4-methylphenyl)(2,4-diaminobutyrate-O,N)borane] | 0.91 | 0.91 | 
97 | 97 | OB(c1ccc(COCCOc2ccc(B(O)c3cccs3)cc2)cc1)c1cccs1 [Example 296, (4-(2-thiophenehydroxyboryl)phenoxyethyl)(4′-(2-thiophenehydroxyboryl)benzyl)ether] | 0.74 | 0.74 | 
89 |  | OB(c1ccccc1)c1ccccc1B(O)c1ccccc1 [Example 297, 1,2-di(phenylhydroxyboryl)benzene] |  | 0.69 | TGase activity remaining (% of DMSO control = 100) (transglutaminase (TGase); TGase inhibitory activity value, Table 1, listed as 806): 89; x-Fold ([1]; polyglutamine aggregation inhibitory activity, Table 1, listed as 806): 0.69
101 | 101 | NCCOB(c1ccccc1)c1ccccc1B(OCCN)c1ccccc1 [Example 298, 1,2-di(phenylaminoethoxyboryl)benzene] | 1.01 | 1.01 | 
47 | 47 | NC(=O)CCC(N)C(=O)OB(c1ccsc1)c1ccc2sc3ccc(B(OC(=O)C(N)CCC(N)=O)c4ccsc4)cc3c2c1 (centres unmarked) [Example 304, 2,8-di(3-thiophenylglutamine-O,N boryl)dibenzothiophene] | 0.90 | 0.90 | 
94 |  | N#Cc1ccc(B(O)c2ccc(C#N)cc2)cc1 [Example 305, 4,4′-di(cyano-phenyl)borinic acid] |  | 0.98 | TGase activity remaining (% of DMSO control = 100) (transglutaminase (TGase); TGase inhibitory activity value, Table 1, listed as 6095): 94; x-Fold ([1]; polyglutamine aggregation inhibitory activity, Table 1, listed as 6095): 0.98
90 | 90 | N#Cc1cccc(B(O)c2cccc(C#N)c2)c1 [Example 306, 3,3′-di(cyano-phenyl)borinic acid] | 0.98 | 0.98 | 
100 |  | COc1ccc(B(O)c2cccc(COCc3cccc(B(O)c4ccc(OC)cc4)c3)c2)cc1 [Example 328, bis(3-(4-methoxyphenylhydroxyboryl)benzyl)ether] |  | 1.04 | 
89 |  | OB(c1ccccc1)c1cccc(COCc2ccccc2B(O)c2ccccc2)c1 [Example 330, (2-(phenylhydroxyboryl)benzyl)(3-(phenylhydroxyboryl)benzyl)ether] |  | 0.90 | TGase activity remaining (% of DMSO control = 100) (transglutaminase (TGase); TGase inhibitory activity value, Table 1, listed as 655): 89; x-Fold ([1]; polyglutamine aggregation inhibitory activity, Table 1, listed as 655): 0.90
91 | 91 | NCCOB(c1ccccc1)c1ccc(COCc2ccccc2B(OCCN)c2ccccc2)cc1 [Example 335, (2-(phenylaminoethoxyboryl)benzyl) (4-(phenylaminoethoxyboryl)benzyl)ether] | 1.02 | 1.02 | 
101 | 101 | OB(c1ccc(F)cc1)c1cccc(COCc2cccc(B(O)c3ccc(F)cc3)c2)c1 [Example 336, bis(3-(4-fluorophenylhydroxyboryl)benzyl)ether] | 1.02 | 1.02 | 
102 | 102 | Fc1ccc(NCCOBc2cccc(COCc3cccc(BOCCNc4ccc(F)cc4)c3)c2)cc1 [Example 337, bis(3-(4-fluorophenylaminoethoxyboryl)benzyl)ether] | 0.98 | 0.98 | 
115 | 115 | Cc1cc(B(OCCN)c2ccc(COCc3ccc(B(OCCN)c4ccc(Cl)c(C)c4)cc3)cc2)ccc1Cl [Example 339] | 0.91 | 0.91 | 
107 |  | Cc1ccc(B(O)c2ccc(COCc3cccc(B(O)c4ccc(C)c(Cl)c4)c3)cc2)cc1Cl [Example 341, (3-(3-chloro-4-methylphenylhydroxyboryl)benzyl)(4-(3-chloro-4-methylphenylhydroxyboryl)benzyl)ether] |  | 1.04 | 
114 | 114 | OB(c1ccc(COCc2cccc(B(O)c3cc(F)c(F)c(F)c3)c2)cc1)c1cc(F)c(F)c(F)c1 [Example 342, (3-(3′,4′,5′-trifluorophenylhydroxyboryl)benzyl)(4-(3′,4′,5′-trifluorophenylhydroxyboryl)benzyl)ether] | 1.02 | 1.02 | 
55 | 55 | COc1ccc(NCCOBc2cccc(COCc3cccc(BOCCNc4ccc(OC)cc4)c3)c2)cc1 [Example 343, bis(3-(4-methoxyphenylaminoethoxyboryl)benzyl)ether] | 1.02 | 1.02 | 
91 | 91 | Cc1cc(B(O)c2cccc(COCc3ccccc3B(O)c3ccc(Cl)c(C)c3)c2)ccc1Cl [Example 344, (3-(4-chloro-3-methylphenylhydroxyboryl)benzyl)(2-(4-chloro-3-methylphenylhydroxyboryl)benzyl)ether] | 0.93 | 0.93 | 
95 | 95 | N#Cc1ccc(B(O)c2cccc(COCc3cccc(B(O)c4ccc(C#N)cc4)c3)c2)cc1 [Example 345, bis(3-(4-cyanophenylhydroxyboryl)benzyl)ether] | 0.92 | 0.92 | 
104 |  | OB(c1cccc(COCc2cccc(B(O)c3cccc4ccccc34)c2)c1)c1cccc2ccccc12 [Example 347, bis(3-(1′-naphthylhydroxyboryl)benzyl)ether] |  | 0.90 | 
104 | 104 | COc1ccc(F)cc1B(O)c1ccc(COCc2ccc(B(O)c3cc(F)ccc3OC)cc2)cc1 [Example 349, bis(4-(2-methoxy-5-fluorophenylhydroxyboryl)benzyl)ether] | 0.80 | 0.80 | 
103 | 103 | Cc1cc(B(OCCN)c2cccc(COCc3ccccc3B(OCCN)c3ccc(Cl)c(C)c3)c2)ccc1Cl [Example 351] | 1.00 | 1.00 | 
97 | 97 | OB(c1ccc(COCc2ccc(B(O)c3ccc(F)c(F)c3)cc2)cc1)c1ccc(F)c(F)c1 [Example 352, bis(4-(3,4-difluorophenylhydroxyboryl)benzyl)ether] | 1.02 | 1.02 | 
113 | 113 | NCCOB(c1ccc(COCc2cccc(B(OCCN)c3cc(F)c(F)c(F)c3)c2)cc1)c1cc(F)c(F)c(F)c1 [Example 354, (3-(3′,4′,5′-trifluorophenylaminoethoxyboryl)benzyl)(4-(3′,4′,5′-trifluorophenylaminoethoxyboryl)benzyl)ether] | 1.09 | 1.09 | 
51 | 51 | NCCOB(c1ccccc1)c1ccc(-c2ccc(B(OCCN)c3ccccc3)s2)s1 [Example 356, 5,5′-(phenylaminoethoxyboryl)-2,2′-dithiophene] | 1.06 | 1.06 | 
 | 126 | c1ccc(B(OCCN2CCN(CCOB(c3ccccc3)c3ccccc3)CC2)c2ccccc2)cc1 [Example 356] | 0.94 |  | 
89 | 89 | Cc1cc(B(OCCN)c2ccccc2)cc(B(OCCN)c2ccccc2)c1 [Example 357, 3,5-di(phenylaminoethoxyboryl)toluene] | 1.03 | 1.03 | 

Compound | TGase activity remaining (% of DMSO control = 100) (transglutaminase (TGase); [2]) | TGase activity remaining (% of DMSO control = 100) (transglutaminase (TGase); [3]) | x-Fold [1, 4] | x-Fold [1, 5] | other results
Cc1cc(B(O)c2ccc(COCc3ccc(B(O)c4ccc(Cl)c(C)c4)cc3)cc2)ccc1Cl [Example 338, bis(4-(4-chloro-3-methyl-phenyl)hydroxyborylbenzyl)ether] | 110 |  |  | 0.83 | TGase activity remaining (% of DMSO control = 100) (transglutaminase (TGase); TGase inhibitory activity value, Table 1, listed as 693): 110; x-Fold ([1]; polyglutamine aggregation inhibitory activity, Table 1, listed as 693): 0.83
